In US20150080559A1, “Compositions Containing, Methods Involving, and Uses of Non-Natural Amino Acid Linked Dolastatin Derivatives” (priority 2011, published 2015):
Read-outs that look alike come from different tables or passages of the source.

Key:
[1] = test system: LS513; experiment: In vitro inhibition of proliferation assay (WST-8), LS513; type: cell-based; conditions: Data Set I, experiment Sep. 4, 2010; 72 hr; read-out: IC50 Values after 72 hr drug treatment, LS513
Experimental: (§1) At day 1, the cells were seeded. The media was aspirated and the T-225 culture flasks of cells was rinsed with 30 mL PBS −/. PBS was aspirated and 6 mL of 0.25% Trypsin-EDTA was added to each flask. The flasks were incubated at 37C, 5% CO2 for 2-5 minutes. Adherent cells were dislodged by hitting flask and trypsin was neutralized by adding 14 mL culture medium. The cell suspension was mixed and transferred to a 50 mL conical tube. The cells were spun down at 1200 rpm, 5 min, room temperature. The resultant cell pellet was resuspended in 12 mL of culture medium. The cells were counted in a hemacytometer. Cells were seeded at appropriate cell densities into 96-well flat-bottom, clear plates and incubated overnight at 37° C., 5% CO2 to allow cells to attach. Plating volume was 80 uL/well. 80 uL/well of culture medium was utilized as the “no cell” control.
(§2) At day 2, the test samples were added to the cells. The test samples were diluted in culture medium to a 9× stock concentration in Column 2 of a round-bottom 96-well plate. 3× serial dilutions were made from Column 2 to Column 11 with a multi-channel pipettor. 10 uL/well of the above samples was added in duplicate to the appropriate wells of the seeded plate. The total volume in the wells was about 90 uL/well. […]
(§3) At day 5, proliferation readout occurred. […] The plates were measured for absorbance at OD 450 nm. […]

[2] = test system: SKOV-3; experiment: In vitro inhibition of proliferation assay (WST-8), SKOV-3; type: cell-based; conditions: 72 hr, read-out: IC50 Values after 72 hr drug treatment, SKOV-3
Experimental: as §1
(§4) Cell plating density examples include: • BT474 (high Her2)—20,000 cells/well in F12k/DMEM (50/50), 10% FBS, P/S • MDA-MB-468 (Her2 negative)—6,000 cells/well in F12k/DMEM (50/50), 10% FBS, P/S • HCC1954—5,000 cells/well in RPMI 1640, 10% FBS, P/S • SKOV-3—6,000 cells/well in RPMI 1640, 10% FBS, P/S • HT29—20,000 cells/well in McCoy's 5A, 10% FBS, P/S
(§5) At day 2, the test samples were added to the cells. The test samples were diluted in culture medium to a 9× stock concentration in Column 2 of a round-bottom 96-well plate. 3× serial dilutions were made from Column 2 to Column 11 with a multi-channel pipettor. 10 uL/well of the above samples was added in duplicate to the appropriate wells of the seeded plate. The total volume in the wells was about 90 uL/well. 10 uL/well of culture medium was added to avoid edge effects for sample wells. Media Control wells were included in the inner wells where no sample was added (just 10 uL/well of culture medium) to be used in proliferation calculations. The plates were incubated at 37° C., 5% CO2 for 72 hrs.
as §3

[3] = test system: BT474; experiment: In vitro inhibition of proliferation assay (WST-8), BT474; type: cell-based; conditions: 72 hr, read-out: IC50 Values after 72 hr drug treatment, BT474
Experimental: as §1, §4, §5, §3

[4] = test system: MDA-MB-468; experiment: In vitro inhibition of proliferation assay (WST-8), MDA-MB-468; type: cell-based; conditions: Data Set II, experiment Oct. 8, 2010; 72 hr; read-out: IC50 Values after 72 hr drug treatment, MDA-MB-468
Experimental: as §1, §4
(§6) At day 2, the test samples were added to the cells. […]
as §3

[5] = test system: NCI-N87; experiment: In vitro inhibition of proliferation assay (WST-8), NCI-N87; type: cell-based; conditions: Data Set I, experiment Sep. 4, 2010; 72 hr; read-out: IC50 Values after 72 hr drug treatment, NCI-N87
Experimental: as §1, §2, §3

[6] = test system: HT29; experiment: In vitro inhibition of proliferation assay (WST-8), HT29; type: cell-based; conditions: Data Set II, experiment Sep. 24, 2010; 72 hr; read-out: IC50 Values after 72 hr drug treatment, HT29
Experimental: as §1, §4, §6, §3

[7] = test system: MDA-MB-175; experiment: In vitro inhibition of proliferation assay (WST-8), MDA-MB-175; type: cell-based; conditions: Data Set I, experiment Sep. 13, 2010
Experimental: as §1, §2, §3

[8] = test system: ZR-75-30; experiment: In vitro inhibition of proliferation assay (WST-8), ZR-75-30; type: cell-based; conditions: Data Set I, experiment Sep. 4, 2010; 72 hr; read-out: IC50 Values after 72 hr drug treatment, ZR-75-30
Experimental: as §1, §2, §3

[9] = test system: HCC1954; experiment: In vitro inhibition of proliferation assay (WST-8), HCC1954; type: cell-based, human; conditions: 72 hr, read-out: IC50 Values after 72 hr drug treatment, HCC1954
Experimental: as §1, §4, §6, §3

[10] = Data Set I, experiment Sep. 4, 2010
[11] = Data Set I, experiment Sep. 13, 2010
[12] = Data Set II, experiment Oct. 8, 2010

Dolastatin
IC50 [1]: 0.2 nM
IC50 [2, 10]: 0.2 nM
IC50 [2, 11]: 0.1 nM
IC50 [2, 12]: 0.2 nM
IC50 [3, 10]: 0.1 nM
IC50 [3, 11]: 0.1 nM
IC50 ([3]; Data Set II, experiment Sep. 24, 2010): 2.5 nM
IC50 [4]: < 0.01 nM
IC50 [5]: > 30 nM
IC50 [6]: 4 nM
IC50 Values after 72 hr drug treatment, MDA-MB-175 [7]: no fit
IC50 [8]: > 30 nM
IC50 [9, 10]: 0.06 nM
IC50 [9, 12]: 0.04 nM
